Measured values taken from article PMC10224031, “Arylimidamides Have Potential for Chemoprophylaxis against Blood-Transmitted Chagas Disease” (Pathogens, 2023).
“And” between values parts separate entries of the source, which are not always exact repeats. Identical values can stand only once. Like-named read-outs stand apart in the source and are kept apart here. Marks after values point to notes of the source that are not given here.

How the values were obtained:
[1] = tested on: T. cruzi bloodstream trypomastigotes; test: In vivo infectivity in Swiss mice of blood samples infected with bloodstream trypomastigotes pre-treated with AIAs or CV; parameters: species or system Trypanosoma cruzi; details: for suppression of the parasite load (parasitemia): both genders; for Clearance of the Parasitemia / Clearance of the Parasitemia after cyclophosphamide administration: cleared mice/total
Protocol: Male and female Swiss Webster mice (18–20 g) were obtained from the Fundação Oswaldo Cruz animal facilities (ICTB, Rio de Janeiro, Brazil). Mice were housed at a maximum of five per cage, kept in a specific pathogen-free (SPF) room at 20 to 24 °C under a 12-h/12 h light/dark cycle and provided sterilized water and chow ad libitum. The animals were allowed to acclimate for 7 days before the start of the experiments.
For evaluation of the chemoprophylactic potential of the AIAs and CV in vivo, the mice were inoculated (via i.p.) with 10^4 trypomastigotes into 200 µL of: (a) infected untreated blood samples; (b) infected using blood samples pre-treated for 2 h with the compounds at a concentration corresponding either to their EC50 or with 96 µM of one of the AIAs.
Parasitemia of individual mice was daily checked (until 10 dpi, and then, twice a week) by direct microscopic counting of parasites in 5 µL of blood taken via tail prick. Body weight was evaluated weekly, and mortality was checked daily until 40 days post-treatment and expressed as the percentage of survival. Thirty days after treatment the animals were immunosuppressed with cyclophosphamide (50 mg/kg) in three cycles of 4 consecutive days/week and the parasitemia and mortality rates were evaluated for 4 weeks.

[2] = tested on: bloodstream trypomastigotes of Trypanosoma cruzi; details: cited from earlier work; for fold more effective than crystal violet (trypanocidal activity): 4 °C in the presence of 96% mouse blood
mouse blood cells = type: cell-based; details: Swiss Webster, 24 h
Protocol: In 96-well microplates, 100 µL of the mouse blood suspension was added to the same volume of DB745 or DB766 at concentrations ranging from 2.4 to 192 µM. After incubation at 4 °C for 24 h, the samples were centrifuged (5 min/540× g) and a 100 µL aliquot was transferred to another microplate and the levels of hemoglobin measured at 540 nm. Deionized water was used as control for 100% hemolytic activity, and PBS as a negative control. The degree of hemolysis was calculated by the variation index (VI) that corresponds to the ratio of optical density (OD) of the treated sample/positive control. The reading of the OD of the samples was performed in the SpectraMax® Plus 384 Absorbance Plate Reader spectrophotometer (540 nm) and duplicate samples were run in at least two assays.

[3] = tested on: bloodstream trypomastigotes (BT) of Trypanosoma cruzi; test: In vitro infectivity of bloodstream trypomastigotes pre-treated with AIAs in cardiac cell cultures; type: cell-based; details: for Par./Infected CC / II (infection index = % infection × parasites/infected CM) / % Infection: BT pre-treated 2 h at EC50 (DB745 6.4 μM, DB766 1.14 μM)
Protocol: Bloodstream trypomastigote (BT) forms of the Y strain were obtained from infected male Swiss mice, at peak parasitemia. The purified parasites were resuspended in Dulbecco’s modified Eagle’s medium (DME) supplemented with 10% FBS (DMES). […] Then, the parasite suspensions were centrifuged (3000 rpm/10 min) and the pellet resuspended in RPMI, quantified through light microscopy, and used for the infection of Swiss embryo mouse cardiac cell cultures (CC) seeded (15 × 10^4 cells/well) in 24-well plates (10:1 parasite–cell ratio). After 24 h of parasite–host cell interaction, the infected cultures were washed to remove free parasites and maintained at 37 °C in an atmosphere of 5% CO2 and air and the culture medium replaced every 24 h. Afterwards, untreated and treated infected cardiac cells (CCs) were fixed and stained with Giemsa and examined via light microscopy. Only characteristic T. cruzi nuclei and kinetoplasts were counted as surviving parasites since irregular structures could mean parasites undergoing death. The activity of the AIAs was estimated by calculating the infection index (II), which corresponds to the percentage of infected cells multiplied by the average number of intracellular parasites per infected host cell. Duplicate assays were run in the same plate and at least two independent assays were performed as standard.

[4] = experiment # 1, inoculum pre-treated 2 h at 96 μM, male Swiss mice, n = 5, vehicle 261.1 ± 124.6
[5] = experiment # 1, inoculum pre-treated 2 h at EC50, male Swiss mice, n = 5, vehicle 261.1 ± 124.6
[6] = experiment # 1, pre-treatment at 96 μM
[7] = experiment # 1, pre-treatment at EC50
[8] = experiment # 2, inoculum pre-treated 2 h at 96 μM, male Swiss mice, n = 5, vehicle 277.9 ± 57.2
[9] = experiment # 2, inoculum pre-treated 2 h at EC50, male Swiss mice, n = 5, vehicle 277.9 ± 57.2
[10] = experiment # 2, pre-treatment at 96 μM
[11] = experiment # 2, pre-treatment at EC50
[12] = female Swiss mice, n = 10, inoculum pre-treated at 96 µM, vehicle 247.7 ± 25.3
[13] = female mice, 96 µM, untreated 0%
[14] = male Swiss mice, n = 10, inoculum pre-treated at 96 µM, vehicle 209.8 ± 29.2
[15] = 24 h of parasite-host cell interaction, untreated 23.4 ± 5.5
[16] = 2 h incubation, infected mouse blood, read-out: EC50

SMILES	suppression of the parasite load (parasitemia) ([1]; 96 µM)	Parasitemia at 8 dpi [1, 4]	Parasitemia at 8 dpi [1, 5]	Clearance of the Parasitemia [1, 6]	Clearance of the Parasitemia [1, 7]	Parasitemia at 8 dpi [1, 8]	Parasitemia at 8 dpi [1, 9]	Clearance of the Parasitemia [1, 10]	Clearance of the Parasitemia [1, 11]	Parasitemia at 8 dpi [1, 12]	Clearance of the Parasitemia after cyclophosphamide administration ([1]; female Swiss mice, 96 µM)	animal survival [1, 13]	Parasitemia at 8 dpi [1, 14]	Clearance of the Parasitemia after cyclophosphamide administration ([1]; male Swiss mice, 96 µM)	animal survival ([1]; male mice, 96 µM, untreated 0%)	fold more effective than crystal violet (trypanocidal activity) [2]	OD (mouse blood cells; 3.9 μM)	VI (variation index = OD(treated)/OD(control)) (mouse blood cells; 3.9 μM)	OD (mouse blood cells; 10.6 μM)	VI (variation index = OD(treated)/OD(control)) (mouse blood cells; 10.6 μM)	further results
CC(C)Oc1cc(NC(=N)c2ncccn2)ccc1-c1ccc(-c2ccc(NC(=N)c3ncccn3)cc2OC(C)C)o1 [DB1831]	> 99%	0.0 ± 0.0 ×10^4 Parasites/mL	366.2 ± 295.1 ×10^4 Parasites/mL	2/5	0/5	0.0 ± 0.0 ×10^4 Parasites/mL	157.7 ± 55.9 ×10^4 Parasites/mL	4/5	0/5	0.1 ± 0.5 10^4 parasites/mL	2/10	100%	0.0 ± 0.0 10^4 parasites/mL	7 out of 10 and 7/10	90%	at least 30 fold	–	–	–	–	infected mice with complete clearance of parasitemia ([1]; 96 µM, even after immune suppression with cyclophosphamide): 60%; animal survival ([1]; 96 µM, vehicle treated samples 0%): ≥ 90%; EC50 ([2]; used as inoculation pre-treatment concentration (Table 3 footnote a), read-out: EC50/2 h): 500 nM
CC(C)Oc1cc(NC(=N)c2ccccn2)ccc1-c1ccc(-c2ccc(NC(=N)c3ccccn3)cc2OC(C)C)o1 [DB766]	–	7.9 ± 5.2 ×10^4 Parasites/mL	141.3 ± 152.7 ×10^4 Parasites/mL	0/5	0/5	0.7 ± 1.1 ×10^4 Parasites/mL	170.5 ± 39 ×10^4 Parasites/mL	0/5	0/5	–	–	–	–	–	–	at least 30 fold	0.248 ± 0.018	0.094	0.200 ± 0.034	0.076	OD (mouse blood cells; 32 μM): 0.230 ± 0.051; VI (variation index = OD(treated)/OD(control)) (mouse blood cells; 32 μM): 0.088; OD (mouse blood cells; 96 μM): 0.317 ± 0.069; VI (variation index = OD(treated)/OD(control)) (mouse blood cells; 96 μM): 0.121 *; Par./Infected CC ([3]; 24 h, untreated 1.6 ± 0.5): 0.5 ± 0.7; II (infection index = % infection × parasites/infected CM) ([3]; 24 h, untreated 38 ± 16): 0.5 ± 2.1; decrease in number of parasites per infected host cell ([3]; 24 h of CC infection, BT pre-incubated at EC50): 69%; % Infection [3, 15]: 1% and 1.0 ± 1.5 %; Par./Infected CC ([3]; 72 h, untreated 17.7 ± 1.7): 0.3 ± 0.4; % Infection ([3]; 72 h, untreated 26.3 ± 2.3): 0.1% and 0.1 ± 0.2%; II (infection index = % infection × parasites/infected CM) ([3]; 72 h, untreated 466 ± 49): 0.03 ± 0.2; decrease in number of parasites per infected host cell ([3]; 72 h of CC infection, BT pre-incubated at EC50): 98%; reduction in the II ([3]; BT pre-incubated at EC50): > 99%; EC50 [2, 16]: 1140 nM
CN(C)c1ccc(C(=C2C=CC(=[N+](C)C)C=C2)c2ccc(N(C)C)cc2)cc1 [CV, crystal violet, reference compound]	> 99%	34.7 ± 38.5 ×10^4 Parasites/mL	–	0/5	–	1.6 ± 1.7 ×10^4 Parasites/mL	–	0/5	–	0 ± 0 10^4 parasites/mL	3/10	90%	0.1 ± 0.2 10^4 parasites/mL	4/10	60%	–	–	–	–	–	–
CCOc1cc(NC(=N)c2ccccn2)ccc1-c1ccc(-c2ccc(NC(=N)c3ccccn3)cc2OCC)o1 [DB745]	–	4.6 ± 2.4 ×10^4 Parasites/mL	156.4 ± 31.1 ×10^4 Parasites/mL	0/5	0/5	1.3 ± 1.1 ×10^4 Parasites/mL	4.2 ± 2.1 ×10^4 Parasites/mL	0/5	0/5	–	–	–	–	–	–	at least 30 fold	0.215 ± 0.037	0.082	0.184 ± 0.014	0.070	OD (mouse blood cells; 1.2 μM): 0.220 ± 0.063; VI (variation index = OD(treated)/OD(control)) (mouse blood cells; 1.2 μM): 0.084; OD (mouse blood cells; 32 μM): 0.195 ± 0.007; VI (variation index = OD(treated)/OD(control)) (mouse blood cells; 32 μM): 0.074; OD (mouse blood cells; 96 μM): 0.206 ± 0.004; VI (variation index = OD(treated)/OD(control)) (mouse blood cells; 96 μM): 0.078; Par./Infected CC ([3]; 24 h, untreated 1.6 ± 0.5): 1.4 ± 0.3; II (infection index = % infection × parasites/infected CM) ([3]; 24 h, untreated 38 ± 16): 10 ± 4.4; % Infection [3, 15]: 7.3 ± 3.4 %; Par./Infected CC ([3]; 72 h, untreated 17.7 ± 1.7): 18.6 ± 2.4; % Infection ([3]; 72 h, untreated 26.3 ± 2.3): 14.6 ± 0.2%; II (infection index = % infection × parasites/infected CM) ([3]; 72 h, untreated 466 ± 49): 272 ± 39; effect on parasite multiplication (parasites per infected host cell) ([3]; BT pre-incubated at EC50): only slightly impaired the parasite multiplication; reduction of parasitemia peak ([1]; inoculum pre-treated at EC50, male Swiss mice): > 98%; EC50 [2, 16]: 6400 nM
